Experimental data as given in ChEMBL document CHEMBL1135136, “Carbonic anhydrase inhibitors. Preparation of potent sulfonamides inhibitors incorporating bile acid tails” (Bioorg Med Chem Lett, 2002).

Experiments:
[1] = molecular target: Carbonic anhydrase 2 (Homo sapiens, UniProt P00918)
Description: Inhibitory activity against human recombinant carbonic anhydrase II (CA2)

[2] = molecular target: Carbonic anhydrase 1 (Homo sapiens, UniProt P00915)
Description: Inhibitory activity against human recombinant carbonic anhydrase I (CA1)

[3] = molecular target: T1, Carbonic anhydrase 4 (Bos taurus, UniProt Q95323)
T1 sequence (Q95323 whole entry): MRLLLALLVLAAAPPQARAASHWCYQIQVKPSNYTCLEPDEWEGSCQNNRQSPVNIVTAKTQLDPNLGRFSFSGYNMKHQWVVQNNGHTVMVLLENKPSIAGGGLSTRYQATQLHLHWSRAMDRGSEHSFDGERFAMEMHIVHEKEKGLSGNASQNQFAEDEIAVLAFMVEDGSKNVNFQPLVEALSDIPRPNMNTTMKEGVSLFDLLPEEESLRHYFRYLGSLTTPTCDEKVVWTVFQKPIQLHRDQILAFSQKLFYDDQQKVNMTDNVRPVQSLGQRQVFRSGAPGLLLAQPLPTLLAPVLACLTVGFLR
Description: Inhibitory activity against bovine carbonic anhydrase IV (CA4), obtained from bovine lung microsomes

Chain of Carbonic anhydrase 1 (P00915 whole entry): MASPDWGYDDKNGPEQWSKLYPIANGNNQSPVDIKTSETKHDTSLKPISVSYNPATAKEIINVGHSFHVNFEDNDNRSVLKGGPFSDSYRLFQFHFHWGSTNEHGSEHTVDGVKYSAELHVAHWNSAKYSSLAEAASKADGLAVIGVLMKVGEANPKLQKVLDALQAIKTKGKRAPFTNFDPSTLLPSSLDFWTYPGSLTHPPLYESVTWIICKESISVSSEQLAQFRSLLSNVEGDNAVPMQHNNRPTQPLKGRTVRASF

| Compound | Ki [1] [nM] | Ki [2] [nM] | Ki [3] [nM] |
| --- | --- | --- | --- |
| C[C@H](CCC(=O)Nc1ccc2nc(S(N)(=O)=O)sc2c1)[C@H]1CC[C@H]2[C@@H]3CC[C@@H]4C[C@H](O)CC[C@]4(C)[C@H]3CC[C@]12C | 2.8 | 48 | 9 |
| C[C@H](CCC(=O)Nc1c(S(N)(=O)=O)cc(S(N)(=O)=O)c(Cl)c1Cl)[C@H]1CC[C@H]2[C@@H]3[C@H](O)C[C@@H]4C[C@H](O)CC[C@]4(C)[C@H]3C[C@H](O)[C@]12C | 21 | 400 | 97 |
| C[C@H](CCC(=O)NNc1ccc(S(N)(=O)=O)cc1)[C@H]1CC[C@H]2[C@@H]3[C@H](O)C[C@@H]4C[C@H](O)CC[C@]4(C)[C@H]3CC[C@]12C | 295 | 27500 | 850 |
| C[C@H](CCC(=O)Nc1ccc(S(N)(=O)=O)cc1F)[C@H]1CC[C@H]2[C@@H]3[C@H](O)C[C@@H]4C[C@H](O)CC[C@]4(C)[C@H]3CC[C@]12C | 50 | 1050 | 128 |
| C[C@H](CCC(=O)Nc1ccc(S(N)(=O)=O)cc1I)[C@H]1CC[C@H]2[C@@H]3[C@H](O)C[C@@H]4C[C@H](O)CC[C@]4(C)[C@H]3CC[C@]12C | 55 | 521 | 110 |
| C[C@H](CCC(=O)Nc1ccc(S(N)(=O)=O)cc1Cl)[C@H]1CC[C@H]2[C@@H]3[C@H](O)C[C@@H]4C[C@H](O)CC[C@]4(C)[C@H]3C[C@H](O)[C@]12C | 82 | 970 | 168 |
| C[C@H](CCC(=O)NCCc1ccc(S(N)(=O)=O)cc1)[C@H]1CC[C@H]2[C@@H]3CC[C@@H]4C[C@H](O)CC[C@]4(C)[C@H]3CC[C@]12C | 41 | 650 | 70 |
| C[C@H](CCC(=O)OCCc1ccc(S(N)(=O)=O)cc1)[C@H]1CC[C@H]2[C@@H]3[C@H](O)C[C@@H]4C[C@H](O)CC[C@]4(C)[C@H]3C[C@H](O)[C@]12C | 80 | 1150 | 300 |
| C[C@H](CCC(=O)OCc1ccc(S(N)(=O)=O)cc1)[C@H]1CC[C@H]2[C@@H]3[C@@H](O)C[C@@H]4C[C@H](O)CC[C@]4(C)[C@H]3CC[C@]12C | 75 | 500 | 245 |
| C[C@H](CCC(=O)NNc1ccc(S(N)(=O)=O)cc1)[C@H]1CC[C@H]2[C@@H]3[C@H](O)C[C@@H]4C[C@H](O)CC[C@]4(C)[C@H]3C[C@H](O)[C@]12C | 315 | 32100 | 1050 |
| C[C@H](CCC(=O)NCCc1ccc(S(N)(=O)=O)cc1)[C@H]1CC[C@H]2[C@@H]3CC[C@@H]4C[C@H](O)CC[C@]4(C)[C@H]3C[C@H](O)[C@]12C | 77 | 1500 | 245 |
| C[C@H](CCC(=O)OCCc1ccc(S(N)(=O)=O)cc1)[C@H]1CC[C@H]2[C@@H]3[C@H](O)C[C@@H]4C[C@H](O)CC[C@]4(C)[C@H]3CC[C@]12C | 90 | 1100 | 320 |
| C[C@H](CCC(=O)NCc1ccc(S(N)(=O)=O)cc1)[C@H]1CC[C@H]2[C@@H]3[C@H](O)C[C@@H]4C[C@H](O)CC[C@]4(C)[C@H]3CC[C@]12C | 96 | 3450 | 244 |
| C[C@H](CCC(=O)Nc1ccc(S(N)(=O)=O)cc1)[C@H]1CC[C@H]2[C@@H]3[C@H](O)C[C@@H]4C[C@H](O)CC[C@]4(C)[C@H]3C[C@H](O)[C@]12C | 210 | 21000 | 430 |
| C[C@H](CCC(=O)OCc1ccc(S(N)(=O)=O)cc1)[C@H]1CC[C@H]2[C@@H]3CC[C@@H]4C[C@H](O)CC[C@]4(C)[C@H]3C[C@H](O)[C@]12C | 106 | 1000 | 350 |
| C[C@H](CCC(=O)NNc1ccc(S(N)(=O)=O)cc1)[C@H]1CC[C@H]2[C@@H]3CC[C@@H]4C[C@H](O)CC[C@]4(C)[C@H]3CC[C@]12C | 280 | 15000 | 650 |
| C[C@H](CCC(=O)Nc1cc(Cl)c(S(N)(=O)=O)cc1S(N)(=O)=O)[C@H]1CC[C@H]2[C@@H]3[C@H](O)C[C@@H]4C[C@H](O)CC[C@]4(C)[C@H]3C[C@H](O)[C@]12C | 56 | 400 | 130 |
| C[C@H](CCC(=O)Nc1ccc(S(N)(=O)=O)cc1)[C@H]1CC[C@H]2[C@@H]3CC[C@@H]4C[C@H](O)CC[C@]4(C)[C@H]3CC[C@]12C | 106 | 6300 | 280 |
| C[C@H](CCC(=O)OCCc1ccc(S(N)(=O)=O)cc1)[C@H]1CC[C@H]2[C@@H]3[C@@H](O)C[C@@H]4C[C@H](O)CC[C@]4(C)[C@H]3CC[C@]12C | 58 | 350 | 160 |
| C[C@H](CCC(=O)NCc1ccc(S(N)(=O)=O)cc1)[C@H]1CC[C@H]2[C@@H]3[C@H](O)C[C@@H]4C[C@H](O)CC[C@]4(C)[C@H]3C[C@H](O)[C@]12C | 120 | 3780 | 254 |
| C[C@H](CCC(=O)Nc1ccc(S(N)(=O)=O)cc1)[C@H]1CC[C@H]2[C@@H]3[C@@H](O)C[C@@H]4C[C@H](O)CC[C@]4(C)[C@H]3CC[C@]12C | 71 | 4000 | 164 |
| C[C@H](CCC(=O)Nc1ccccc1S(N)(=O)=O)[C@H]1CC[C@H]2[C@@H]3C(=O)C[C@@H]4CC(=O)CC[C@]4(C)[C@H]3CC(=O)[C@]12C | 170 | 8100 | 505 |
| C[C@H](CCC(=O)Nc1c(S(N)(=O)=O)cc(S(N)(=O)=O)c(Cl)c1Cl)[C@H]1CC[C@H]2[C@@H]3[C@H](O)C[C@@H]4C[C@H](O)CC[C@]4(C)[C@H]3CC[C@]12C | 21 | 343 | 95 |

Now from value to compound:

| Ki [1] [nM] | Ki [2] [nM] | Ki [3] [nM] | Compound |
| --- | --- | --- | --- |
| 10 | 61 | 19 | C[C@H](CCC(=O)Nc1ccc(S(N)(=O)=O)cc1I)[C@H]1CC[C@H]2[C@@H]3C(=O)C[C@@H]4CC(=O)CC[C@]4(C)[C@H]3CC(=O)[C@]12C |
| 9 | 66 | 28 | C[C@H](CCC(=O)Nc1ccc(S(N)(=O)=O)cc1Br)[C@H]1CC[C@H]2[C@@H]3C(=O)C[C@@H]4CC(=O)CC[C@]4(C)[C@H]3CC(=O)[C@]12C |
| 0.7 | 31 | 6 | C[C@H](CCC(=O)Oc1ccc2nc(S(N)(=O)=O)sc2c1)[C@H]1CC[C@H]2[C@@H]3[C@@H](O)C[C@@H]4C[C@H](O)CC[C@]4(C)[C@H]3CC[C@]12C |
| 4.8 | 39 | 9 | C[C@H](CCC(=O)Oc1ccc2nc(S(N)(=O)=O)sc2c1)[C@H]1CC[C@H]2[C@@H]3CC[C@@H]4C[C@H](O)CC[C@]4(C)[C@H]3C[C@H](O)[C@]12C |
| 2.1 | 200 | 30 | C[C@H](CCC(=O)NCCC(=O)Nc1nnc(S(N)(=O)=O)s1)[C@H]1CC[C@H]2[C@@H]3CC[C@@H]4C[C@H](O)CC[C@]4(C)[C@H]3C[C@H](O)[C@]12C |
| 11 | 77 | 50 | C[C@H](CCC(=O)Nc1cc(Cl)c(S(N)(=O)=O)cc1S(N)(=O)=O)[C@H]1CC[C@H]2[C@@H]3C(=O)C[C@@H]4CC(=O)CC[C@]4(C)[C@H]3CC(=O)[C@]12C |
| 11 | 180 | 24 | C[C@H](CCC(=O)Nc1ccc(S(N)(=O)=O)cc1F)[C@H]1CC[C@H]2[C@@H]3[C@@H](O)C[C@@H]4C[C@H](O)CC[C@]4(C)[C@H]3CC[C@]12C |
| 10 | 210 | 28 | C[C@H](CCC(=O)Nc1nnc(S(N)(=O)=O)s1)[C@H]1CC[C@H]2[C@@H]3CC[C@@H]4C[C@H](O)CC[C@]4(C)[C@H]3CC[C@]12C |
| 0.6 | 30 | 5 | C[C@H](CCC(=O)OCCOc1ccc2nc(S(N)(=O)=O)sc2c1)[C@H]1CC[C@H]2[C@@H]3[C@@H](O)C[C@@H]4C[C@H](O)CC[C@]4(C)[C@H]3CC[C@]12C |
| 10 | 59 | 29 | C[C@H](CCC(=O)Nc1c(S(N)(=O)=O)cc(S(N)(=O)=O)c(Cl)c1Cl)[C@H]1CC[C@H]2[C@@H]3[C@@H](O)C[C@@H]4C[C@H](O)CC[C@]4(C)[C@H]3CC[C@]12C |
| 17 | 130 | 87 | C[C@H](CCC(=O)Nc1c(S(N)(=O)=O)cc(S(N)(=O)=O)c(Cl)c1Cl)[C@H]1CC[C@H]2[C@@H]3CC[C@@H]4C[C@H](O)CC[C@]4(C)[C@H]3CC[C@]12C |
| 1.3 | 98 | 11 | C[C@H](CCC(=O)NCCC(=O)Nc1nnc(S(N)(=O)=O)s1)[C@H]1CC[C@H]2[C@@H]3[C@@H](O)C[C@@H]4C[C@H](O)CC[C@]4(C)[C@H]3CC[C@]12C |
| 0.8 | 30 | 6 | C[C@H](CCC(=O)OCCOc1ccc2nc(S(N)(=O)=O)sc2c1)[C@H]1CC[C@H]2[C@@H]3C(=O)C[C@@H]4CC(=O)CC[C@]4(C)[C@H]3CC(=O)[C@]12C |
| 10 | 91 | 23 | C[C@H](CCC(=O)Nc1ccc(S(N)(=O)=O)cc1Br)[C@H]1CC[C@H]2[C@@H]3[C@@H](O)C[C@@H]4C[C@H](O)CC[C@]4(C)[C@H]3CC[C@]12C |
